This test relates to acid secretion in isolated rabbit gastric glands. Nature of the test: Acid secretion inhibition in isolated rabbit gastric glands. The test is classed as cell-based. As to conditions: Oryctolagus cuniculus, in vitro, read-out: IC50, inhibiting effect on acid secretion in vitro. How it is done:
Acid Secretion Inhibition in Isolated Rabbit Gastric Glands
Inhibiting effect on acid secretion in vitro in isolated rabbit gastric glands was measured as described by Berglindh et al. (1976) Acta Physiol. Scand. 97, 401-414.

Results on two molecules are retold here after patent publication US6465505B1, “Benzyl-substituted benzimidazoles” (AstraZeneca AB, priority 1996, dated 2002).

The structures appear in SMILES notation.

With `Cc1nc2c(NCc3ccccc3)cccc2[nH]1` [Compound (A), 4-benzylamino-2-methylbenzimidazole], the concentration for half-maximal inhibition (IC50) – broadly, the concentration needed to halve the response being measured – was determined as 12.9 µM.

Turning to `Cc1nc2c(OCc3ccccc3)cccc2[nH]1` [Compound (B), 4-benzyloxy-2-methyl benzimidazole], the IC50 amounted to 7.8 µM.
